Assay results: patent publication EP4650362A1, “NEUROPROTECTIVE PSD-95 POLYPEPTIDE INHIBITOR AND USE THEREOF” (Beijing Tuo Jie Biopharmaceutical Co. Ltd., priority 2023, dated 2024)
Where two headings read alike, the source gives them in different places. No end group written: not given here.

Experiments:
[1] = test system: rat red blood cell suspensions; assay: hemolysis risk test in rat whole blood; type: cell-based; conditions: for Hemolysis rate (%): Rat, 37 °C 1 h
Source text: Hemolysis refers to the phenomenon in which the membrane of erythrocytes is destroyed, along with increased transparency and a dark red appearance. Certain pharmaceutical ingredients, excipients, etc. may contain hemolytic components, which may cause hemolysis in the human body and cause adverse reactions such as local swelling and blood circulation dysfunction. On the basis of the principle that the hemoglobin released from lysed red blood cells has absorption in the visible light wave band, test compound solutions were added to rat red blood cell suspensions, and after incubation, the degrees of hemolysis were determined using a microplate reader.
This test example assessed whether a polypeptide compound causes hemolytic reactions in rat, rabbit, and human whole blood.
Preparation of red blood cell suspension: 100 µL of fresh whole blood was collected, and 900 µL of 1× PBS solution was then added. The mixture was shaken on a plate shaker at 30 rpm for 5 min and then centrifuged at 1000 g for 5 min, and the supernatant was discarded. The above washing step was repeated until the supernatant no longer appeared red. The suspension was set aside for later use.
Preparation of test polypeptide solutions: An appropriate amount of 1× PBS solution was added to a powdered polypeptide, and the polypeptide was dissolved to form a standard stock solution. […] Meanwhile, blank 1× PBS was used as a negative control, and a 1× PBS solution containing 0.1% Triton X-100 was used as a positive control.
Incubation: A test solution (500 µL) was added to the red blood cell suspension, and then the mixture was well shaken on a plate shaker at 30 rpm for 5 min, incubated at 37 °C for 1 h, and centrifuged at 1000 g for 5 min.
100 µL of the supernatant was transferred to a single well of a microplate. The absorbance at 540 nm was measured using a SpectraMax M5 microplate reader, and data analysis was performed using GraphPad Prism 9. The hemolysis rate (%) was calculated using the formula: (test sample absorbance - negative control absorbance) / (positive control absorbance - negative control absorbance) × 100%. A rate of less than 5% indicates the absence of hemolysis, while a rate of greater than 5% indicates the presence of hemolysis. Table 3. Testing of the hemolysis risk of the polypeptide compound

[2] = test system: histamine release; assay: ability to induce histamine release in beagle dogs (plasma); type: in vivo; conditions: beagle dog plasma, 1.2 nmol/g
Experimental: With beagle dogs as test animals, the ability of a polypeptide compound administered via single intravenous infusion to induce histamine release in dogs (plasma) was studied.
This test was performed synchronously with Test Examples 3.9, with four animals per group and blood collection time points set as follows: before administration (0 h), and 2 min, 5 min, and 15 min after the end of intravenous infusion.
Sample analysis and data processing were performed with reference to the methods in 3.7.3. Table 10. Histamine levels at different time points

[3] = test system: histamine release; assay: ability to induce histamine release in rats (plasma); type: in vivo, SD rats; conditions: rat plasma, 3 nmol/g
Experimental: With male SD rats as test animals, the ability of a polypeptide compound administered via single intravenous bolus injection to induce histamine release in rats (plasma) was studied.
This test was performed synchronously with Test Examples 3.6, with three animals per group and blood collection time points set as follows: before administration, and 2 min, 8 min, and 15 min after the end of intravenous bolus injection.
The histamine and 3-methylhistamine levels at each time point were determined by LC-MS/MS. LC-MS detection of compounds: (1) Chromatographic conditions: mobile phase A: acetonitrile/water/100 mM ammonium acetate, 50/45/5 (v/v/v), 2% FA; mobile phase B: acetonitrile/100 mM ammonium acetate, 95/5 (v/v), 2% FA; flow rate: 0.4 mL/min; chromatography column: Waters BEH HILIC 1.7 µm, 2.1 × 150 mm; column temperature: 50 °C; injection volume: 20 µL. (2) Mass-spectrometric conditions: The mass spectrometry analysis used an electrospray ionization (ESI) source, a positive ion analysis mode, and a multi-reaction monitoring (MRM) scan mode.
Sample pretreatment: A 30 µL plasma sample was taken and added to 200 µL of an acetonitrile solution containing tetradeuterated histamine (D4-histamine, 100 ng/mL). The mixture was vortexed for 1 min and then centrifuged at 5800 rpm for 10 min, and 100 µL of the supernatant was transferred to a sample tray and injected into an instrument for analysis. […] Table 7. Histamine levels at different time points

[4] = pharmacokinetic study in beagle dogs, single intravenous infusion; type: in vivo; conditions: for AUClast/dose / T1/2 / AUC(0-inf) / Cmax / MRT / Tmax: beagle dogs, intravenous infusion over 10 min, 1.2 nmol/g; for Tmax: read-out: Tmax
Experimental: With standard beagle dogs as test animals, the pharmacokinetic behavior of a polypeptide compound administered via single intravenous infusion in beagle dogs (plasma) was studied.
For polypeptide compound 22, two dose groups were set: 1.2 nmol/g and 0.4 nmol/g. For NA-1, one dose group was set: 1.2 nmol/g. Each group consisted of four animals, with an equal number of males and females. The polypeptide compound was dissolved in 1× PBS, and the polypeptide compound solution was then administered via intravenous infusion over 10 min. The blood collection time points were as follows: before infusion (0 h), 5 min after the start of bolus injection, and 0 min, 2 min, 5 min, 10 min, 15 min, 30 min, 1 h, 2 h, 4 h, 8 h, and 24 h after the end of bolus injection. At each time point, 0.5 mL of blood was collected and transferred to an EDTA-K2 anticoagulation centrifuge tube. Meanwhile, 50 µL of a protease inhibitor was added. After thorough mixing, the mixture was centrifuged at 2000 g for 10 min (4 °C), and the plasma was separated within 1 h, aliquoted into cryopreservation tubes, and stored at -60 to -90 °C. The blood collection-to-centrifugation process was performed under ice bath conditions.
The plasma concentrations of the test compounds were determined using the method in Test Example 3.4.3. Plasma concentration-time curves were plotted, and the pharmacokinetic parameters were calculated using PKSolver software.

YGRKKRRQRRRKLSSIESDV [NA-1, YGRKKRRQR RRKLSSIESDV, reference compound]
Hemolysis rate (%) ([1]; 1.0 µM): -0.12% | Hemolysis rate (%) ([1]; 2.5 µM): 0.03% | Hemolysis rate (%) ([1]; 5.0 µM): 0.50% | Hemolysis rate (%) ([1]; 10 µM): 0.48% | Hemolysis rate (%) ([1]; 25 µM): 0.34% | Hemolysis rate (%) ([1]; 50 µM): -0.46% | hemolysis rates ([1]; rat whole blood, concentration range of 1 to 50 µM): less than 5% | Histamine levels (sums of detected histamine and 3-methylhistamine) ([2]; 0 min (before administration)): 7.08±3.15 | Histamine levels (sums of detected histamine and 3-methylhistamine) ([2]; 2 min after the end of intravenous infusion): 40.47±64.51 | Histamine levels (sums of detected histamine and 3-methylhistamine) ([2]; 5 min after the end of intravenous infusion): 73.95±131.85 | Histamine levels (sums of detected histamine and 3-methylhistamine) ([2]; 15 min after the end of intravenous infusion): 68.80±124.89 | Histamine levels (sums of detected histamine and 3-methylhistamine) ([3]; 0 min (before administration)): 21.0±5.9 | Histamine levels (sums of detected histamine and 3-methylhistamine) ([3]; 2 min after the end of intravenous bolus injection): 390.7±164.2 | Histamine levels (sums of detected histamine and 3-methylhistamine) ([3]; 8 min after the end of intravenous bolus injection): 86.6±36.6 | Histamine levels (sums of detected histamine and 3-methylhistamine) ([3]; 15 min after the end of intravenous bolus injection): 48.3±19.2 | AUClast/dose ([4]; Female): 284 | T1/2 ([4]; Female): 2.4 min | AUClast/dose ([4]; Male): 363 | T1/2 ([4]; Male): 3 min | half-life ([4]; both sexes, beagle, dog, in vivo, iv, dogs, same dose (1.2 nmol/g), read-out: average T1/2 (converted)): 2.7 min | AUC(0-inf) ([4]; dog, in vivo, Female): 855 ng·h/mL | Cmax ([4]; dog, in vivo, Female): 5030 ng/mL | MRT ([4]; dog, in vivo, Female): 9 min | Tmax ([4]; dog, in vivo, Female): 7.8 min | AUC(0-inf) ([4]; dog, in vivo, Male): 1100 ng·h/mL | Cmax ([4]; dog, in vivo, Male): 6780 ng/mL | MRT ([4]; dog, in vivo, Male): 9.6 min | Tmax ([4]; dog, in vivo, Male): 10.2 min
